The values below come from US6365135B1, “Use of amino phenol amide derivatives as depigmentation agents” (L'Oreal, priority 1997, dated 2002).

The test system of the assay is co-culture of keratinocytes and melanocytes. The assay can be described thus: Depigmenting activity test: inhibition of melanogenesis on a co-culture of keratinocytes and melanocytes. It counts as cell-based. The following applies: for Class (maximum depigmenting activity): inhibition of melanogenesis relative to the control; for IC50: co-culture of keratinocytes and melanocytes, read-out: IC50 (concentration for which a 50% inhibition of melanogenesis is observed). On the procedure: This test corresponds to the one described in patent FR 2,734,825 filed by the Applicant, as well as in the article by R. Schmidt, P. Krien and M. Régnier, Anal. Biochem., 235 (2), 113-18, (1996). This test is thus carried out on a co-culture of keratinocytes and melanocytes.
For each test compound, the IC50 value, which corresponds to the micromolar concentration (μM) for which a 50% inhibition of melanogenesis is observed, is determined.
Moreover, a class is given to each of these compounds as regards their maximum depigmenting activity:
class 1: 10 to 30% inhibition of melanogenesis relative to the control (same experiment without test compound);
class 2: 30 to 60% inhibition of melanogenesis relative to the control (same experiment without test compound);
class 3: 60 to 100% inhibition of melanogenesis relative to the control (same experiment without test compound).

On to `O=c1cc(CO)occ1O` [Kojic acid], for which the IC50 is 500 µM. In addition, for the setting “500 μM”, the “Class (maximum depigmenting activity)” value is listed as 2 to 500 μM (class 2: 30 to 60% inhibition of melanogenesis relative to the control (same experiment without test compound)).

As to `CCCCCCCCCCCC(=O)Oc1ccc(NC(C)=O)cc1` [Lauroyl [4-(N-acetylamino)] phenol, Lauroyl [4-(N-acetylamino)]phenol], the IC50 is more than 100 µM. Moreover, where the note is “100 μM”, the “Class (maximum depigmenting activity)” value is 2 to 100 μM (class 2: 30 to 60% inhibition of melanogenesis relative to the control (same experiment without test compound)).
